Results taken from ChEMBL document CHEMBL3046862, “Structure-activity relationship of aliphatic compounds for nematicidal activity against pine wood nematode (Bursaphelenchus xylophilus)” (2010).

Experiments:
Format in all cases: functional
[1] = system: Bursaphelenchus xylophilus; assay: Nematicidal activity against Bursaphelenchus xylophilus assessed as mortality at 0.25 mg/ml measured after 48 hr under microscope
[2] = system: Bursaphelenchus xylophilus; assay: Nematicidal activity against Bursaphelenchus xylophilus at 0.5 mg/ml measured after 48 hr under microscope
[3] = system: Bursaphelenchus xylophilus; assay: Nematicidal activity against Bursaphelenchus xylophilus assessed as mortality at 0.0625 mg/ml measured after 48 hr under microscope
[4] = system: Bursaphelenchus xylophilus; assay: microbe, parasite or virus in culture; conditions: 48 h, at 0.125 mg/mL
Description: Nematicidal activity against Bursaphelenchus xylophilus assessed as mortality at 0.125 mg/ml measured after 48 hr under microscope

CCCCCCC(=O)O [HEPTANOATE]
mortality at 250 µg/mL [1]: 53.7%
mortality at 500 µg/mL [2]: 100%

CCCCCCCCCCC/C=C/C=O
mortality at 500 µg/mL [2]: 3.3%

CCCCCCCCCCCCCCOC(C)=O
mortality at 500 µg/mL [2]: 0.9%

CCCCCCCCCCCO [UNDECANOL]
mortality at 62.5 µg/mL [3]: 98.3%
mortality at 250 µg/mL [1]: 100%
mortality at 500 µg/mL [2]: 100%
mortality at 125 µg/mL [4]: 99.4%

CCCCCCCCC [NONANE]
mortality at 500 µg/mL [2]: 2.3%

CCCCCCCCCCCC(=O)O [DODECANOATE]
mortality at 500 µg/mL [2]: 1.9%

CCCCCCCCCCCCCC=O [TETRADECANAL]
mortality at 500 µg/mL [2]: 3.5%

CCCCCC/C=C/C=O [2-NONENAL]
mortality at 62.5 µg/mL [3]: 47.4%
mortality at 250 µg/mL [1]: 100%
mortality at 500 µg/mL [2]: 100%
mortality at 125 µg/mL [4]: 99.8%

CCCCCCCCCCC=O [UNDECANAL]
mortality at 500 µg/mL [2]: 7.4%

CCCCCCCC [OCTANE]
mortality at 500 µg/mL [2]: 3.8%

CCCCCCCC=O [OCTANAL]
mortality at 500 µg/mL [2]: 13.6%

CCCCC/C=C/C=O
mortality at 62.5 µg/mL [3]: 22.6%
mortality at 250 µg/mL [1]: 99%
mortality at 500 µg/mL [2]: 100%
mortality at 125 µg/mL [4]: 90.6%

CCCCCCCC/C=C/C=O
mortality at 500 µg/mL [2]: 24.8%

CCCCCCCC(=O)O [OCTANOIC ACID]
mortality at 250 µg/mL [1]: 98.9%
mortality at 500 µg/mL [2]: 100%
mortality at 125 µg/mL [4]: 50.1%

CCCCCCCCCC=O [DECANAL]
mortality at 500 µg/mL [2]: 7.9%

CCCCCCCCC/C=C/CO
mortality at 500 µg/mL [2]: 4.7%

CCCCCCCCCCCCCO
mortality at 500 µg/mL [2]: 4.4%

CCCCCCCCCCCCCCO [MYRISTYL ALCOHOL]
mortality at 500 µg/mL [2]: 4%

CCCCCCCCCCCCC=O [TRIDECANAL]
mortality at 500 µg/mL [2]: 7.6%

CCCCCCCCCCCC=O [DODECANAL]
mortality at 500 µg/mL [2]: 6.6%

CCCCCC(=O)O [HEXANOATE]
mortality at 500 µg/mL [2]: 31.3%

CCCCCCCCCC [DECANE]
mortality at 500 µg/mL [2]: 1.6%

CCCCCCCCCC/C=C/C=O
mortality at 500 µg/mL [2]: 4.9%

CCCCCCCCCCC/C=C/CO
mortality at 500 µg/mL [2]: 2.6%

CCCCCCCCCCCCCC
mortality at 500 µg/mL [2]: 1.7%

CCCCCCCCCOC(C)=O [NONYLACETATE]
mortality at 500 µg/mL [2]: 3.1%

CCCC/C=C/C=O
mortality at 62.5 µg/mL [3]: 18%
mortality at 250 µg/mL [1]: 97.8%
mortality at 500 µg/mL [2]: 100%
mortality at 125 µg/mL [4]: 76.3%

CCCCCCCCC/C=C/C=O
mortality at 500 µg/mL [2]: 5.1%

CCCCCCOC(C)=O [HEXYL ACETATE]
mortality at 500 µg/mL [2]: 1.5%

CCCCCCCCCCC(=O)O [UNDECANOATE]
mortality at 250 µg/mL [1]: 96%
mortality at 500 µg/mL [2]: 98.5%
mortality at 125 µg/mL [4]: 51.3%

CCCC/C=C/CO
mortality at 500 µg/mL [2]: 50.9%

CCCCCCCO [1-HEPTANOL]
mortality at 500 µg/mL [2]: 29.8%

CCCCCCCCCO [NONANOL]
mortality at 62.5 µg/mL [3]: 4.7%
mortality at 250 µg/mL [1]: 100%
mortality at 500 µg/mL [2]: 100%
mortality at 125 µg/mL [4]: 81%

CCCCC/C=C/CO
mortality at 250 µg/mL [1]: 31.5%
mortality at 500 µg/mL [2]: 97.4%

CCCCCCO [1-HEXANOL]
mortality at 500 µg/mL [2]: 12.6%

CCCCCCCCCCCCC(=O)O [TRIDECANOATE]
mortality at 500 µg/mL [2]: 4.4%

CCCCCCCCCCCOC(C)=O [UNDECYLACETATE]
mortality at 500 µg/mL [2]: 2.3%

CCCCCCC=O [HEPTANAL]
mortality at 500 µg/mL [2]: 6%

CCCCCC/C=C/CO
mortality at 250 µg/mL [1]: 100%
mortality at 500 µg/mL [2]: 100%
mortality at 125 µg/mL [4]: 45.5%

CCCCCCCCOC(C)=O [OCTYL ACETATE]
mortality at 500 µg/mL [2]: 4.9%

CCCCCCCCCC(=O)O [DECANOIC ACID]
mortality at 62.5 µg/mL [3]: 59.8%
mortality at 250 µg/mL [1]: 100%
mortality at 500 µg/mL [2]: 100%
mortality at 125 µg/mL [4]: 100%

CCCCCCCCCCOC(C)=O [DECYLACETATE]
mortality at 500 µg/mL [2]: 1.6%

CCCCCCCCCCCCCOC(C)=O [TRIDECYLACETATE]
mortality at 500 µg/mL [2]: 1.4%

CCCCCC=O [HEXANAL]
mortality at 500 µg/mL [2]: 4.2%

CCCCCCC [HEPTANE]
mortality at 500 µg/mL [2]: 2.6%

CCCCCCCCCCCCCC(=O)O [MYRISTIC ACID]
mortality at 500 µg/mL [2]: 3.8%

CCCCCCCCCCCCO [DODECANOL]
mortality at 500 µg/mL [2]: 3.1%

CCCCCCCCC(=O)O [NONANOATE]
mortality at 62.5 µg/mL [3]: 40.1%
mortality at 250 µg/mL [1]: 100%
mortality at 500 µg/mL [2]: 100%
mortality at 125 µg/mL [4]: 100%

CCCCCCCCCC/C=C/CO
mortality at 500 µg/mL [2]: 3.5%

CCCCCCCCCCCCC
mortality at 500 µg/mL [2]: 3.3%

CCCCCC [HEXANE]
mortality at 500 µg/mL [2]: 4.4%

CCC/C=C/C=O
mortality at 250 µg/mL [1]: 83.1%
mortality at 500 µg/mL [2]: 95.6%
mortality at 125 µg/mL [4]: 22%

CCCCCCCCC=O [NONANAL]
mortality at 500 µg/mL [2]: 14.2%

CCCCCCCC/C=C/CO
mortality at 62.5 µg/mL [3]: 45.1%
mortality at 250 µg/mL [1]: 100%
mortality at 500 µg/mL [2]: 100%
mortality at 125 µg/mL [4]: 100%

CCCCCCCOC(C)=O [HEPTYLACETATE]
mortality at 500 µg/mL [2]: 7.4%

CCCCCCCCO [OCTANOL]
mortality at 250 µg/mL [1]: 17%
mortality at 500 µg/mL [2]: 100%

CCCCCCCCCCC
mortality at 500 µg/mL [2]: 1.6%

CCCCCCC/C=C/CO
mortality at 62.5 µg/mL [3]: 43.3%
mortality at 250 µg/mL [1]: 100%
mortality at 500 µg/mL [2]: 100%
mortality at 125 µg/mL [4]: 100%

CCC/C=C/CO
mortality at 500 µg/mL [2]: 13%

CCCCCCCCCCCC [DODECANE]
mortality at 500 µg/mL [2]: 1.6%

CCCCCCCCCCCCOC(C)=O [DODECYLACETATE]
mortality at 500 µg/mL [2]: 1.7%

CCCCCCCCCCO [DECANOL]
mortality at 62.5 µg/mL [3]: 15.6%
mortality at 250 µg/mL [1]: 100%
mortality at 500 µg/mL [2]: 100%
mortality at 125 µg/mL [4]: 100%
